The source of these data is patent US20150272979A1, “COMBINATION THERAPEUTIC COMPOSITION” (Hoffman La-Roche Inc., priority 2012, published 2015).

SMILES strings stand for the structures.

For data set [1], the system named is HCV replication. The conditions noted are these: general statement; cited from earlier work.
Data set [2] concerns CYP isozymes including 3A4, 2C19, 1A2, 2D6, and 2C9. Description: Cytochrome P450 phenotyping using chemical inhibitors. It counts as in vitro ADME. The conditions noted are these: early preclinical studies. The source says:
(§1) Therefore, a cytochrome P450 monooxygenase inhibitor in an amount effective to inhibit metabolism of the protease inhibitor could increase the bioavailability of Compound 2 compared to administration in the absence of the CYP inhibitor.

For data set [3], the target named is CYP3A4 (Homo sapiens, UniProt P08684). Nature of the data set: Metabolism by recombinant CYPs. It counts as in vitro ADME.
Chain of CYP3A4 (P08684 whole entry): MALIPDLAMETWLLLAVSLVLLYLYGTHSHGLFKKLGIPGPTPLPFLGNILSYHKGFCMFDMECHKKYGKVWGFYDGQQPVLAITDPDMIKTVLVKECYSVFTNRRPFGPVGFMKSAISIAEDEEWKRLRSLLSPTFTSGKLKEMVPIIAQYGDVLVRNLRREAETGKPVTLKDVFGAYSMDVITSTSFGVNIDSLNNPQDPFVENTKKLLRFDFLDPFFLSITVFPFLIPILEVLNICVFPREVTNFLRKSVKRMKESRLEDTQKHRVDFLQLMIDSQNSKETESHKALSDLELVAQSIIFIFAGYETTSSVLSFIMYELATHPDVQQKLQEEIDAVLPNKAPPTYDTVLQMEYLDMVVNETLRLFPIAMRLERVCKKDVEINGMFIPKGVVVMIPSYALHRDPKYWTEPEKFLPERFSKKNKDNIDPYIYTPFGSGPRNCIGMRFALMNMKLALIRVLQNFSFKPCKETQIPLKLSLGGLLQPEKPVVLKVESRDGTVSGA
Excerpt: as §1

As to `CC(C)(C)OC(=O)N[C@H]1CCCCC/C=C\[C@@H]2C[C@@]2(C(=O)NS(=O)(=O)C2CC2)NC(=O)[C@@H]2C[C@@H](OC(=O)N3Cc4cccc(F)c4C3)CN2C1=O` [Compound 2, (1S,4R,6S,14S,18R)-4-Fluoro-1,3-dihydro-isoindole-2-carboxylic acid 14-tert-butoxycarbonylamino-4-cyclopropanesulfonylaminocarbonyl-2,15-dioxo-3,16-diaza-tricyclo[14.3.0.04,6]nonadec-7-en-18-yl ester], in data set [1], the “Inhibition of HCV replication” value is listed as “effective in inhibiting HCV replication”. Further, the “CYP isozymes participating in metabolism” value in data set [2] is “multiple CYP isozymes including 3A4, 2C19, 1A2, 2D6, and 2C9 participate in the metabolism”. Further, in data set [3], the “Metabolism by recombinant CYPs” value is reported as “only CYP3A4 metabolized Compound 2 to an extent that could influence the pharmacokinetics”.
`CS(=O)(=O)Nc1ccc2c(c1)S(=O)(=O)N=C(C1=C(O)C3C([C@@H]4CC[C@H]3C4)N(Cc3ccc(F)cc3)C1=O)N2` (stereo partly shown) [Compound 3]: the “Inhibition of HCV replication” value in data set [1] was “effective in inhibiting HCV replication”.
